Experimental data as given in patent US8148334B2, “Peptides with capacity for binding with interleukine 10 (IL-10)” (Proyecto de Biomedicina Cima, S.L., priority 2007, dated 2012).
Where two headings read alike, the source gives them in different places. Blank lines part the entries; values can stand above or below the compound they belong to. Where a SMILES comes first, the peptide text is derived from it. Where no end group is shown, it is not given here.

Key:
[1] = Solubilization of 1 mg/mL peptides in culture medium, DMSO or urea; type: physicochemical; conditions: for Resuspension with DMSO: DMSO 2% of final volume of 1 mg/mL stock and clean medium, after sonication
Description: In order to measure the capacity of the peptides to inhibit IL-10, it is necessary for them to be in solution in the culture medium in which the proliferation assay with MC/9 cells is conducted. To that end, an attempt was first made to dissolve the peptides in complete medium at the concentration of 1 mg/mL. Due to the fact that, of the 26 peptides of Table 1, only 10 were soluble and 2 were partially soluble in these conditions (Table 3), it was necessary to improve the solubility of the remaining peptides by adding different proportions of dimethyl sulfoxide (DMSO) or urea. Other solubilizing agents, such as guanidine hydrochloride, ethanol, methanol, isopropanol, dimethylformamide (DMF), acetone, acetonitrile, ammonia and acetic acid were also tested, but due to the fact that they were not very effective or toxic for the cells, their use was discarded. For the purpose of limiting as much as possible the toxicity of DMSO or urea, the concentration of both agents in the culture medium was kept as low as possible compatible with the in vitro assay. Thus, the maximum concentration of solubilizing agent to be added which allows conducting the in vitro proliferation assay of MC/9 cells was first determined. As indicated above, 1, 0.5, 0.1, 0.05, 0.01, 0.005 and 0.001% acetic acid, ammonia, DMSO, DMF, acetone, acetonitrile, isopropanol, methanol and ethanol and 2, 1, 0.5, 0.250, 0.125, 0.062 and 0.031 M urea and guanidine hydrochloride were tested.
Guanidine hydrochloride was very toxic in all tested concentrations. […] In the case of urea, the limit concentration was 125 mM, and for ammonia, 0.2% (maximum tested). In relation to the alcohols, they were compatible up to 1% (maximum) and acetone and acetonitrile seemed to induce MC/9 cell proliferation. DMSO: • The resuspension of the peptides identified as SEQ ID NO: 5, SEQ ID NO: 6, SEQ ID NO: 9, SEQ ID NO: 12, SEQ ID NO: 15 and SEQ ID NO: 16 with DMSO (2% of the final volume of the 1 mg/mL stock) and clean medium was tested. After subjecting them to sonication, all of them were still cloudy, except the peptide identified as SEQ ID NO: 16. Methanol/Ethanol • To dissolve peptides using these alcohols, it is necessary to use them at 100% and at this concentration they are toxic for MC/9 cells. They are toxic even at 70%. Urea • The peptides identified as SEQ ID NO: 6, SEQ ID NO: 16, SEQ ID NO: 17, SEQ ID NO: 18 and SEQ ID NO: 20 were dissolved in 8 M urea (final concentration 0.8 M in 1 mg/mL) and complete medium. Urea is relatively toxic (cpm without urea 1.128, with 120 mM urea 109, with 80 mM 308 and with 20 mM 800, but the window is maintained).
Of the total of 39 peptides indicated, 11 (in bold print) could not be solubilized with any of the indicated conditions, therefore they could not be tested in the in vitro assay.
The peptides which could not be solubilized with any of the tested conditions are indicated in bold print. part S: partially soluble; S: soluble; I: insoluble

MC/9 cells = experiment: Toxicity: inhibition of mGM-CSF-induced MC/9 cell proliferation; type: cell-based, mouse; conditions: inhibition of proliferation induced by 0.01 ng/mL mGM-CSF
Excerpt: The addition of peptides with the capacity to inhibit the activity of IL-10 to the MC/9 cell culture, to which exogenous IL-10 has been added, has the effect of inhibiting the proliferation of these cells due to the fact that IL-10 promotes the proliferation thereof. However, the addition of a peptide or any component to the culture (used to improve peptide solubility) which was toxic for MC/9 cells would also have the effect of inhibiting cell proliferation. […] For this purpose, an assay in parallel of the peptides using mouse granulocyte-monocyte colony-stimulating factor (mGM-CSF) (which also promotes MC/9 cell proliferation) instead of IL-10 was conducted. The concentration of mGM-CSF used was 0.01 ng/mL. In this case, IL-4 was not used as co-stimulus. The toxicity was expressed as the percentage of inhibition of the proliferation induced by mGM-CSF.
In the case of the peptides dissolved in urea, when analyzing both the IL-10 inhibition and the toxicity, negative, positive controls and controls with antibody with the concentrations of urea present in the peptide sample (120 mM, 80 mM and 20 mM) as well as controls without urea were included. The percentage of inhibition at each concentration of peptide was calculated comparing the cpm values of the sample with the values of the controls which contained the same concentration of urea.

[2] = 1 mg/mL peptide, read-out: Solubility, 0.8 M UREA
[3] = 1 mg/mL peptide, read-out: Solubility, Complete medium

solubility [1]: insoluble
Resuspension with DMSO [1]: still cloudy
Compound: CC(C)[C@H](NC(=O)[C@H](C)NC(=O)[C@@H](NC(=O)[C@@H]1CCCN1C(=O)[C@H](Cc1c[nH]cn1)NC(=O)[C@H](CCCNC(=N)N)NC(=O)[C@H](CCCNC(=N)N)NC(=O)[C@H](Cc1ccccc1)NC(=O)[C@H](Cc1c[nH]cn1)NC(=O)[C@H](Cc1ccccc1)NC(=O)[C@H](CS)NC(=O)[C@H](CCCNC(=N)N)NC(=O)[C@H](Cc1c[nH]cn1)NC(=O)[C@@H](N)CS)C(C)C)C(=O)N[C@@H](Cc1ccccc1)C(=O)O [P9] (H-CHRCFHFRRHPVAVF-OH; N-terminus and C-terminus assumed)

Solubility, 2% DMSO ([1]; 1 mg/mL peptide): Turbidity
solubility [1, 2]: > 1000 µg/mL
solubility [1, 3]: < 1000 µg/mL
Compound: CC(C)[C@H](NC(=O)[C@H](C)NC(=O)[C@@H](NC(=O)[C@@H]1CCCN1C(=O)[C@H](Cc1c[nH]cn1)NC(=O)[C@H](CCCNC(=N)N)NC(=O)[C@H](CCCNC(=N)N)NC(=O)[C@H](Cc1ccccc1)NC(=O)[C@H](Cc1c[nH]cn1)NC(=O)[C@H](Cc1ccccc1)NC(=O)[C@H](CS)NC(=O)[C@H](CCCNC(=N)N)NC(=O)[C@H](Cc1c[nH]cn1)NC(=O)[C@@H](N)CS)C(C)C)C(=O)N[C@@H](Cc1ccccc1)C(=O)O [compound 6] (H-CHRCFHFRRHPVAVF-OH; N-terminus and C-terminus assumed)

Solubility, 0.8 M UREA ([1]; 1 mg/mL peptide): Turbidity
solubility [1, 3]: < 1000 µg/mL
Compound: CC(C)C[C@H](NC(=O)[C@H](Cc1ccccc1)NC(=O)[C@H](C)NC(=O)[C@H](CC(C)C)NC(=O)[C@@H](NC(=O)[C@H](Cc1ccccc1)NC(=O)[C@H](CC(C)C)NC(=O)[C@H](Cc1c[nH]cn1)NC(=O)[C@H](CS)NC(=O)[C@H](CS)NC(=O)[C@H](CCCNC(=N)N)NC(=O)[C@H](Cc1c[nH]cn1)NC(=O)[C@H](C)N)[C@@H](C)O)C(=O)N[C@@H](Cc1ccccc1)C(=O)N[C@@H](C)C(=O)O [compound 21] (H-AHRCCHLFTLAFLFA-OH; N-terminus and C-terminus assumed)

Solubility, 0.8 M UREA ([1]; 1 mg/mL peptide): Turbidity
solubility [1, 3]: < 1000 µg/mL
Compound: CC(C)C[C@H](NC(=O)CNC(=O)[C@H](C)NC(=O)[C@H](CS)NC(=O)[C@@H](NC(=O)[C@H](Cc1ccccc1)NC(=O)[C@H](Cc1ccccc1)NC(=O)[C@H](CO)NC(=O)[C@@H](N)CCC(=O)O)C(C)C)C(=O)N[C@@H](CS)C(=O)N[C@@H](CCCNC(=N)N)C(=O)N[C@@H](CC(C)C)C(=O)N[C@@H](CCC(N)=O)C(=O)N1CCC[C@H]1C(=O)N[C@@H](Cc1ccc(O)cc1)C(=O)O [compound 23] (H-ESFFVCAGLCRLQPY-OH; N-terminus and C-terminus assumed)

Solubility, 0.8 M UREA ([1]; 1 mg/mL peptide): Turbidity
solubility [1, 3]: < 1000 µg/mL
Compound: CC[C@H](C)[C@H](NC(=O)[C@H](CC(C)C)NC(=O)[C@H](Cc1ccccc1)NC(=O)CNC(=O)[C@@H](NC(=O)[C@H](CC(C)C)NC(=O)[C@H](C)NC(=O)[C@H](CO)NC(=O)[C@H](CS)NC(=O)CN)C(C)C)C(=O)N[C@@H](CC(C)C)C(=O)N[C@@H](CC(C)C)C(=O)N[C@@H](CS)C(=O)N[C@@H](CS)C(=O)N[C@@H](CCSC)C(=O)O [compound 26] (H-GCSALVGFLILLCCM-OH; N-terminus and C-terminus assumed)

solubility [1, 3]: > 1000 µg/mL
Compound: AKVPSFRRSSLGSVR [compound 4]

solubility [1, 3]: > 1000 µg/mL
Compound: ARFPKELRGSVRSAH [compound 14]

solubility [1, 3]: > 1000 µg/mL
Compound: ARWMHRHHGWSDRHR [compound 2]

solubility [1, 3]: < 1000 µg/mL
Compound: FRSFHYHTGRWHWLP [compound 22]

Compound: FSWYFRHHRLMVAGP [P24]
toxicity for MC/9 cells (MC/9 cells): partially toxic

solubility [1, 2]: > 1000 µg/mL
solubility [1, 3]: < 1000 µg/mL
Compound: FSWYFRHHRLMVAGP [compound 18]

solubility [1, 3]: > 1000 µg/mL
Compound: GAGVLTPFTWRRFHM [compound 10]

solubility [1, 3]: > 1000 µg/mL
Compound: GRFRHYSMLRHHSIR [compound 19]

Resuspension with DMSO [1]: still cloudy
Compound: GRVPSMFGGHFFFSR [P21]

Solubility, 0.8 M UREA ([1]; 1 mg/mL peptide): Turbidity
Solubility, 2% DMSO ([1]; 1 mg/mL peptide): Turbidity
solubility [1, 3]: < 1000 µg/mL
Compound: GRVPSMFGGHFFFSR [compound 15]

Resuspension with DMSO [1]: still cloudy
Compound: GVLSSIFSWRLVALH [P18]

Solubility, 0.8 M UREA ([1]; 1 mg/mL peptide): Turbidity
Solubility, 2% DMSO ([1]; 1 mg/mL peptide): Turbidity
solubility [1, 3]: < 1000 µg/mL
Compound: GVLSSIFSWRLVALH [compound 12]

Compound: HGFFAGGLAHWHGHR [P26]
toxicity for MC/9 cells (MC/9 cells): partially toxic

solubility [1, 2]: > 1000 µg/mL
solubility [1, 3]: < 1000 µg/mL
Compound: HGFFAGGLAHWHGHR [compound 20]

solubility [1, 3]: < 1000 µg/mL
Compound: HRHFRWLNGMPRLLG [compound 25]

solubility [1, 3]: > 1000 µg/mL
Compound: HRWMPHVFAVRQGAS [compound 7]

solubility [1, 3]: > 1000 µg/mL
Compound: IFRVLSRMLPGTSVI [compound 13]

Solubility, 0.8 M UREA ([1]; 1 mg/mL peptide): Turbidity
solubility [1, 3]: < 1000 µg/mL
Compound: LFLLSGVFVPDLHEG [compound 24]

solubility [1, 3]: < 1000 µg/mL
Compound: PFVVSDIAFMGLFYD [compound 3]

Resuspension with DMSO [1]: still cloudy
Compound: RFYHADMLLRHVLMM [P8]

Solubility, 0.8 M UREA ([1]; 1 mg/mL peptide): Turbidity
Solubility, 2% DMSO ([1]; 1 mg/mL peptide): Turbidity
solubility [1, 3]: < 1000 µg/mL
Compound: RFYHADMLLRHVLMM [compound 5]

solubility [1, 2]: < 1000 µg/mL
solubility [1, 3]: < 1000 µg/mL
Compound: RGWILDVVYLYPGPL [compound 17]

solubility [1, 3]: > 1000 µg/mL
Compound: RKLRPHWLHFHPVAV [compound 1]

solubility [1, 3]: > 1000 µg/mL
Compound: RMLGFMSGSWRTPVR [compound 11]

solubility [1]: soluble
Compound: TRHRHVPRFLPLRHV [P13]

solubility [1, 3]: > 1000 µg/mL
Compound: TRHRHVPRFLPLRHV [compound 8]

Resuspension with DMSO [1]: still cloudy
Compound: WAYYHAGHSSFAVWT [P14]

Solubility, 0.8 M UREA ([1]; 1 mg/mL peptide): Turbidity
Solubility, 2% DMSO ([1]; 1 mg/mL peptide): Turbidity
solubility [1, 3]: < 1000 µg/mL
Compound: WAYYHAGHSSFAVWT [compound 9]

solubility [1, 2]: > 1000 µg/mL
solubility ([1]; 1 mg/mL peptide, read-out: Solubility, 2% DMSO): < 1000 µg/mL
solubility [1, 3]: < 1000 µg/mL
Compound: WSLLRIVYNRHSHSK [compound 16]
